Common to all, as to experiment: inhibition of tumour cell growth, NCI panel, 48 h
The test system of test [1] is UACC-257.
For test [2], the system named is SN12C.
For test [3], the system named is SK-OV-3.
For test [4], the system named is EKVX.
The test system of test [5] is HOP-62.
The test system of test [6] is MOLT-4.
In test [7] the test system is NCI-H226.
Test [8] deals with COLO 205.
Test [9] has as its system LXFL 529.
The subject of test [10] is A498.
Test [11] has as its system NCI-H23.
Test [12] has as its system SK-MEL-2.
In test [13] the test system is SW-620.
The test system of test [14] is HCT-15.
Test [15] deals with RPMI-8226.
Test [16] has as its system SR.
Test [17] deals with CCRF-CEM.
In test [18] the test system is NCI/ADR-RES.
The test system of test [19] is MDA-MB-435.
Test [20] deals with Hs-578T.

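48-hour exposure; five concentrations; linearly interpolated endpoints. GI50: concentration for 50% inhibition of growth.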 Active and inactive are the calls of the source. No stated cut-off is given here; in the data, active = GI50 up to about 1.1 µM and inactive = higher. Some results are limits rather than exact numbers.

As to `NC(=S)N/N=C(\C(=O)Nc1ccc(Cl)c(Cl)c1)C1=NN(c2ccccc2)C(c2cccc([N+](=O)[O-])c2)CC1=O` (configuration not stated), the GI50 in test [1] is 30.2 µM (inactive); in test [2], 16.8 µM (inactive); in test [3], 30.5 µM (inactive); in test [4], > 100 µM (inactive); in test [5], 34.6 µM (inactive); in test [6], 17.3 µM (inactive). Also, the GI50 in [7] is 25.9 µM (inactive); in test [8], 19 µM (inactive); in test [9], 19.1 µM (inactive); in [10] it was > 100 µM (inactive); in test [11], 21.5 µM (inactive); in test [12], > 100 µM (inactive). For the same molecule, the GI50 in [13] is 13.8 µM (inactive); in [14], 30.8 µM; in test [15], 3.37 µM (inactive); in [16], 28.6 µM (inactive); in test [17], 17.2 µM (inactive).
Regarding `O=C1C(=O)N(c2cccc(C(F)(F)F)c2)C(=O)C(=O)C1c1nc2ccccc2s1`, the GI50 in test [1] is > 92 µM (inactive); in test [2], > 93.3 µM (inactive); in test [3], > 100 µM (inactive); in test [4] it was > 100 µM (inactive); in test [5], 64.9 µM (inactive); in test [6] it was 43.3 µM (inactive). The GI50 was > 81.8 µM (inactive) in test [7]; > 100 µM (inactive) in test [8]; 52 µM (inactive) in [9]; > 100 µM (inactive) in test [10]; > 59.7 µM (inactive) in test [11]; > 100 µM (inactive) in test [12]. Also, the GI50 was 45.2 µM (inactive) in test [18]; 61.1 µM (inactive) in test [13]; > 100 µM (inactive) in test [19]; 39.6 µM in test [14]; > 100 µM (inactive) in [20]; > 80 µM (inactive) in test [15]. For the same molecule, the GI50 in [16] was 36.3 µM (inactive); in test [17] it was 24.5 µM (inactive).
As for `CSc1nc(NC2OC(COC(C)=O)C(OC(C)=O)C(OC(C)=O)C2OC(C)=O)c(/N=C\C=N/c2c(NC3OC(COC(C)=O)C(OC(C)=O)C(OC(C)=O)C3OC(C)=O)nc(SC)n(C)c2=O)c(=O)n1C` (configuration not stated), the GI50 was > 100 µM (inactive) in test [1]; > 92.9 µM (inactive) in test [2]; 36.1 µM (inactive) in [3]; > 100 µM (inactive) in test [4]; 4.32 µM (inactive) in test [5]; > 100 µM (inactive) in test [6]. In addition, the GI50 in [7] was 54.1 µM (inactive); in [8], > 100 µM (inactive); in test [9] it was > 100 µM (inactive); in [10], 38.5 µM (inactive); in test [11], > 70 µM (inactive); in test [12] it was 32.7 µM (inactive). The GI50 in test [18] was > 100 µM (inactive); in test [13], > 100 µM (inactive); in [19] it was > 100 µM (inactive); in test [14] it was more than 100 µM; in test [20], 26.1 µM (inactive); in test [15], > 100 µM (inactive). For the same molecule, the GI50 in test [16] and in [17] was > 100 µM (inactive) throughout.
